Data reported in patent publication US20250368620A1, “ARNT Degrading Compounds and Uses Thereof” (Celgene Corporation, priority 2024, published 2025).

Biological target: T1, ARNT (Homo sapiens, UniProt P27540)
T1 construct: an sgRNA targeting the C-terminus of the ARNT gene near the stop codon; endogenous in cells; host or cells: HEK293 ARNT-HiBiT knock-in, homozygous clone
Test: ARNT degradation in a HiBiT system (HEK293 ARNT-HiBiT Knock-In cell line)
Format: cell-based
Settings: half-maximal degradation concentration; HEK293 ARNT-HiBiT KI cells, 4h of treatment, luminescence
Protocol: Compounds of Formula (I) were tested for ARNT degradation in a HiBiT system. A HEK293 ARNT-HiBiT Knock-In cell line was generated using CRISPR/Cas9 technology. Briefly, HEK293 cells were electroporated with the Neon system with an sgRNA targeting the C-terminus of the ARNT gene near the stop codon ([…] (SEQ ID NO: 1); chr 1: 150,812,014-150,812,034) and the HiBiT donor DNA template (80 nucleotides homology arms upstream and downstream of the insert site, with a GSGS (SEQ ID NO: 2) linker). A homozygous clone was selected after Sanger sequencing, and genetic edition was further validated using Nano-Glo HiBiT blotting system. HEK293 ARNT-HiBiT KI cells were cultured in DMEM+10% FBS at 37° C. and 5% CO2. For the assay, cells were seeded at 10,000 cells/well in white 384 plates (Corning #3570) in 22.5 μl of culture medium without phenol red. Test compounds were spotted in 384-well plates by an acoustic dispenser (10 concentrations, semi-log dilution, in 100% DMSO). Before treatment, compounds were diluted 1:100 or 1:1,000 in culture medium without phenol red, and cells were treated with 2.5 μl of diluted compounds 18h after seeding (final top concentration: 3 or 0.3 μM). After 4h of treatment, plates were equilibrated at room temperature for 30 min, and 25 μl of NANO-GLO® HiBiT Lytic reagent were added per well. Luminescence was measured on a plate reader 15 min after incubation with the detection reagent. Data were analyzed using the Genedata Screener Software version 19, and normalization was performed using the DMSO treated wells as Neutral Control and medium only (without cells) wells as Scale Reference. For curve fitting, the smart fit condensing method with a 4-parameters Hill model was used and the half-maximal degradation concentration (DC50) was calculated.

T1 sequence (P27540 whole entry): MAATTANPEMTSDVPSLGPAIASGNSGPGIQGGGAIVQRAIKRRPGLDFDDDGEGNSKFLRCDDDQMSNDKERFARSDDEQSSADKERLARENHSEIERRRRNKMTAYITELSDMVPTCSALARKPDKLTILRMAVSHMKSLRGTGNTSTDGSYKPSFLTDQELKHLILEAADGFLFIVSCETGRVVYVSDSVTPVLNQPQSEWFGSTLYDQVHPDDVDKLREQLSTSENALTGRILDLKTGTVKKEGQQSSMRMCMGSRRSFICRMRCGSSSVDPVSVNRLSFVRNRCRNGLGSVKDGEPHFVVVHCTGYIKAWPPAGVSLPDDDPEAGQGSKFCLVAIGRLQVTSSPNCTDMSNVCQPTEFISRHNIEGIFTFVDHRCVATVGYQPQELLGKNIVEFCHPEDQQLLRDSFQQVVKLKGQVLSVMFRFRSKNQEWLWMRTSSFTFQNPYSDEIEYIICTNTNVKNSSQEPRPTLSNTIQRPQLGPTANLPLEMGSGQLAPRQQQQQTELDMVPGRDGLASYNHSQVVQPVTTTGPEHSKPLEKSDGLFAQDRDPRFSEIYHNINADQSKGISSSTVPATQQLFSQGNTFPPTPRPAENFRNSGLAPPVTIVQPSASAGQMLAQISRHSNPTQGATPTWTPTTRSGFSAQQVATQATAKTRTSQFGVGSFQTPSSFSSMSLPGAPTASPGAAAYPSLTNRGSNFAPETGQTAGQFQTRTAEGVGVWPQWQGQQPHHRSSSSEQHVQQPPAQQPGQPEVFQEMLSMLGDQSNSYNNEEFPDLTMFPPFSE

Compound: COc1c(C(=O)N2Cc3c(ccc(Cl)c3F)[C@@H]2C)ccc2c1[C@@H](C)N([C@H]1CCC(=O)NC1=O)C2=O [Compound 33, (S)-3-((R)-5-((S)-5-chloro-4-fluoro-1-methylisoindoline-2-carbonyl)-4-methoxy-3-methyl-1-oxoisoindolin-2-yl)piperidine-2,6-dione]
- DC50: 3 nM

Compound: Cc1c(C2CC2)ccc2c1CN(C(=O)c1ccc3c(c1)[C@@H](C)N([C@H]1CCC(=O)NC1=O)C3=O)[C@H]2C [Compound 18, (S)-3-((R)-5-((S)-5-cyclopropyl-1,4-dimethylisoindoline-2-carbonyl)-3-methyl-1-oxoisoindolin-2-yl)piperidine-2,6-dione]
- DC50: 1.2 nM

Compound: C[C@@H]1c2cc(C(=O)N3Cc4c(ccc(C(F)(F)F)c4F)[C@@H]3C)ccc2C(=O)N1[C@H]1CCC(=O)NC1=O [Compound 32, (S)-3-((R)-5-((S)-4-fluoro-1-methyl-5-(trifluoromethyl)isoindoline-2-carbonyl)-3-methyl-1-oxoisoindolin-2-yl)piperidine-2,6-dione]
- DC50: 2.3 nM

Compound: CCOc1ccc2c(c1C)CN(C(=O)c1ccc3c(c1)[C@@H](C)N([C@H]1CCC(=O)NC1=O)C3=O)[C@H]2C [Compound 23, (S)-3-((R)-5-((S)-5-ethoxy-1,4-dimethylisoindoline-2-carbonyl)-3-methyl-1-oxoisoindolin-2-yl)piperidine-2,6-dione]
- DC50: 1.3 nM

Compound: C[C@@H]1c2cc(C(=O)N3Cc4c(ccc(Cl)c4F)[C@@H]3CN3CCCC3)ccc2C(=O)N1[C@H]1CCC(=O)NC1=O [Compound 4, (S)-3-((R)-5-((R)-5-chloro-4-fluoro-1-(pyrrolidin-1-ylmethyl)isoindoline-2-carbonyl)-3-methyl-1-oxoisoindolin-2-yl)piperidine-2,6-dione]
- DC50: 0.42 nM

Compound: C[C@@H]1c2cc(C(=O)N3Cc4cc(C(F)(F)F)ccc4[C@@H]3C)c(F)cc2C(=O)N1[C@H]1CCC(=O)NC1=O [Compound 20, (S)-3-((R)-5-fluoro-1-methyl-6-((S)-1-methyl-5-(trifluoromethyl)isoindoline-2-carbonyl)-3-oxoisoindolin-2-yl)piperidine-2,6-dione]
- DC50: 1.3 nM

Compound: Cc1ccc2c(c1F)CN(C(=O)c1cc3c(cc1F)C(=O)N([C@H]1CCC(=O)NC1=O)[C@@H]3C)[C@H]2C [Compound 25, (S)-3-((R)-5-fluoro-6-((S)-4-fluoro-1,5-dimethylisoindoline-2-carbonyl)-1-methyl-3-oxoisoindolin-2-yl)piperidine-2,6-dione]
- DC50: 1.6 nM

Compound: C[C@H]1c2ccc(Br)c(F)c2CN1C(=O)c1ccc2c(c1)CN(C1CCC(=O)NC1=O)C2=O (stereo partly drawn) [Compound 36, 3-(5-((S)-5-bromo-4-fluoro-1-methylisoindoline-2-carbonyl)-1-oxoisoindolin-2-yl)piperidine-2,6-dione]
- DC50: 3.4 nM

Compound: C[C@@H]1c2cc(C(=O)N3Cc4c(ccc(Cl)c4F)[C@@H]3CN3CC4CCC3C4)ccc2C(=O)N1[C@H]1CCC(=O)NC1=O (stereo partly drawn) [Compound 10, (3S)-3-((3R)-5-((1R)-1-((2-azabicyclo[2.2.1]heptan-2-yl)methyl)-5-chloro-4-fluoroisoindoline-2-carbonyl)-3-methyl-1-oxoisoindolin-2-yl)piperidine-2,6-dione]
- DC50: 0.71 nM

Compound: C[C@H]1c2ccc(Cl)c(F)c2CN1C(=O)c1ccc2c3c(cccc13)N(C1CCC(=O)NC1=O)C2=O (stereo partly drawn) [Compound 5, 3-(5-((S)-5-chloro-4-fluoro-1-methylisoindoline-2-carbonyl)-2-oxobenzo[cd]indol-1(2H)-yl)piperidine-2,6-dione]
- DC50: 0.42 nM

Compound: COc1c(Br)ccc2c1CN(C(=O)c1ccc3c(c1)[C@@H](C)N([C@H]1CCC(=O)NC1=O)C3=O)[C@H]2C [Compound 22, (S)-3-((R)-5-((S)-5-bromo-4-methoxy-1-methylisoindoline-2-carbonyl)-3-methyl-1-oxoisoindolin-2-yl)piperidine-2,6-dione]
- DC50: 1.3 nM

Compound: COc1ccc2c(c1Br)CN(C(=O)c1ccc3c(c1)[C@@H](C)N([C@H]1CCC(=O)NC1=O)C3=O)[C@H]2CN(C)C [Compound 14, (S)-3-((R)-5-((R)-4-bromo-1-((dimethylamino)methyl)-5-methoxyisoindoline-2-carbonyl)-3-methyl-1-oxoisoindolin-2-yl)piperidine-2,6-dione]
- DC50: 0.95 nM

Compound: C[C@@H]1c2cc(C(=O)N3Cc4ccc(F)cc4[C@@H]3C)ccc2C(=O)N1[C@H]1CCC(=O)NC1=O [Compound 27, (S)-3-((R)-5-((S)-6-fluoro-1-methylisoindoline-2-carbonyl)-3-methyl-1-oxoisoindolin-2-yl)piperidine-2,6-dione]
- DC50: 1.7 nM

Compound: C[C@@H]1c2cc(C(=O)N3Cc4c(ccc(Cl)c4F)[C@@H]3CN3CCCCC3)ccc2C(=O)N1[C@H]1CCC(=O)NC1=O [Compound 6, (S)-3-((R)-5-((R)-5-chloro-4-fluoro-1-(piperidin-1-ylmethyl)isoindoline-2-carbonyl)-3-methyl-1-oxoisoindolin-2-yl)piperidine-2,6-dione]
- DC50: 0.46 nM

Compound: C[C@@H]1c2cc(C(=O)N3Cc4c(ccc(Br)c4F)[C@@H]3C)ccc2C(=O)N1[C@H]1CCC(=O)NC1=O [Compound 19, (S)-3-((R)-5-((S)-5-bromo-4-fluoro-1-methylisoindoline-2-carbonyl)-3-methyl-1-oxoisoindolin-2-yl)piperidine-2,6-dione]
- DC50: 1.2 nM

Compound: C[C@H]1c2ccc(C(F)(F)F)cc2CN1C(=O)c1ccc2c(c1)CN(C1CCC(=O)NC1=O)C2=O (stereo partly drawn) [Compound 38, 3-(5-((S)-1-methyl-5-(trifluoromethyl)isoindoline-2-carbonyl)-1-oxoisoindolin-2-yl)piperidine-2,6-dione]
- DC50: 7.6 nM

Compound: C[C@@H]1c2cc(C(=O)N3Cc4c(ccc(Cl)c4F)[C@@H]3CN(C)C)ccc2C(=O)N1[C@H]1CCC(=O)NC1=O [Compound 2, (S)-3-((R)-5-((R)-5-chloro-1-((dimethylamino)methyl)-4-fluoroisoindoline-2-carbonyl)-3-methyl-1-oxoisoindolin-2-yl)piperidine-2,6-dione]
- DC50: 0.33 nM

Compound: C[C@@H]1c2cc(C(=O)N3Cc4ccccc4[C@@H]3CN(C)C)ccc2C(=O)N1[C@H]1CCC(=O)NC1=O [Compound 1, (S)-3-((R)-5-((R)-1-((dimethylamino)methyl)isoin-doline-2-carbonyl)-3-methyl-1-oxoisoindolin-2-yl)piperidine-2,6-dione]
- DC50: 0.29 nM

Compound: C[C@@H]1c2cc(C(=O)N3Cc4c(ccc(Cl)c4F)[C@@H]3CN3CC4CC3C4)ccc2C(=O)N1[C@H]1CCC(=O)NC1=O [Compound 7, (S)-3-((R)-5-((R)-1-((2-azabicyclo[2.1.1]hexan-2-yl)methyl)-5-chloro-4-fluoroisoindoline-2-carbonyl)-3-methyl-1-oxoisoindolin-2-yl)piperidine-2,6-dione]
- DC50: 0.48 nM

Compound: C[C@@H]1c2cc(C(=O)N3Cc4cc(F)c(F)cc4[C@@H]3C)ccc2C(=O)N1[C@H]1CCC(=O)NC1=O [Compound 21, (S)-3-((R)-5-((S)-5,6-difluoro-1-methylisoindoline-2-carbonyl)-3-methyl-1-oxoisoindolin-2-yl)piperidine-2,6-dione]
- DC50: 1.3 nM

Compound: C[C@@H]1c2cc(C(=O)N3Cc4c(ccc(Cl)c4F)[C@@H]3C)ccc2C(=O)N1[C@H]1CCC(=O)NC1=O [Compound 30, (S)-3-((R)-5-((S)-5-chloro-4-fluoro-1-methylisoindoline-2-carbonyl)-3-methyl-1-oxoisoindolin-2-yl)piperidine-2,6-dione]
- DC50: 1.9 nM

Compound: COc1cccc2c1CN(C(=O)c1ccc3c(c1)[C@@H](C)N([C@H]1CCC(=O)NC1=O)C3=O)[C@H]2CN(C)C [Compound 11, (S)-3-((R)-5-((R)-1-((dimethylamino)methyl)-4-methoxyisoindoline-2-carbonyl)-3-methyl-1-oxoisoindolin-2-yl)piperidine-2,6-dione]
- DC50: 0.72 nM

Compound: C[C@@H]1c2c(ccc(C(=O)N3Cc4ccccc4[C@@H]3CN(C)C)c2F)C(=O)N1[C@H]1CCC(=O)NC1=O [Compound 29, (S)-3-((R)-5-((R)-1-((dimethylamino)methyl)isoin-doline-2-carbonyl)-4-fluoro-3-methyl-1-oxoisoindolin-2-yl)piperidine-2,6-dione]
- DC50: 1.8 nM

Compound: C[C@@H]1c2cc(C(=O)N3Cc4c(Br)cccc4[C@@H]3CN(C)C)ccc2C(=O)N1[C@H]1CCC(=O)NC1=O [Compound 3, (S)-3-((R)-5-((R)-4-bromo-1-((dimethylamino)methyl)isoin-doline-2-carbonyl)-3-methyl-1-oxoisoindolin-2-yl)piperidine-2,6-dione]
- DC50: 0.39 nM

Compound: C[C@@H]1c2cc(C(=O)N3Cc4c(ccc(Cl)c4F)[C@@H]3CN3CC(F)(F)C3)ccc2C(=O)N1[C@H]1CCC(=O)NC1=O [Compound 15, (S)-3-((R)-5-((R)-5-chloro-1-((3,3-difluoroazetidin-1-yl)methyl)-4-fluoroisoindoline-2-carbonyl)-3-methyl-1-oxoisoindolin-2-yl)piperidine-2,6-dione]
- DC50: 1 nM
